Data set [1] deals with bacteria from the ESKAPE panel. Format: cell-based. Particulars: broth microdilution, 1.17-150 μM peptide, 2 hours. As for the experimental part: Methods: Broth microdilution assay. Log-phase bacteria were collected by centrifugation (2500 rpm, 10 min, 4° C.), washed twice with 10 mM sodium phosphate buffer containing 1% (w/v) TSB and the optical density at 600 nm was adjusted to 0.1. Approximately 5×10^5 CFU/ml bacteria were incubated with serial peptide concentrations (1.17-150 μM) in a final volume of 100 μl in 10 mM sodium phosphate buffer containing 1% (w/v) TSB for 2 hours at 37° C. After incubation, 100 μl of 6% TSB (w/v) was added and absorbance was measured at 600 nm (Tecan, Switzerland) and monitored for 18 hours. Afterwards, 100 μl per well was plated on LB agar to determine the number of viable bacteria microbiologically. Bactericidal activity was expressed as the LC99.9, the lowest concentration that killed ≥99.9% of bacteria.
(In general: In broth dilution the organism is exposed to a series of concentrations in liquid medium.)

In another data set the test system is ypuA promoter. Briefly: ypuA promoter luciferase reporter gene assay. The class given is cell-based, Bacillus subitilis 1S34. As to the method: A specific bacterial reporter strain with the genetic background of Bacillus subitilis 1S34, carrying the promoter of the ypuA gene, fused to the firefly luciferase reporter gene, was used to identify cell envelope-related damage caused by treatment with antimicrobial compounds. Bacteria were cultured to an OD600 of 0.9 in LB broth with 5 μg/ml erythromycin at 37° C. and diluted to an OD600 of 0.02. Serial peptide dilutions (0.15-150 μM) were prepared in a microtiter plate and incubated with the adjusted bacterial suspension at 37° C. for 1 hour. Subsequently, citrate buffer (0.1 M, pH 5) containing 2 mM luciferin (Iris Biotech, Germany) was added and luminescence was measured using a microplate reader (Tecan, Switzerland).
(In general: Reporter assays use an easily measured gene product as a stand-in for the process of interest.)

A short description of data set [2]: Cellular toxicity, WST-1 cell proliferation assay. Format: cell-based. As for the experimental part: (§1) Methods: Cellular toxicity was determined by Lactate dehydrogenase concentration and WST-1 cell proliferation assay as well as hemolysis assay.
For another data set, the system named is red blood cell. In words: Hemolysis assay. Format: cell-based. As to the method: as §1
In a further data set the test system is S. Typhimurium. Briefly: Acute gastrointestinal infection caused by S. Typhimurium. Format: in vivo, mice. As to the method:
Methods: Analysis of bacterial loads in feces. Fresh fecal samples were collected and weighted. Samples were homogenized in 1 ml LB media by bead-beating with 1 mm zirconia/silica beads twice for 25 s using a Mini-Beadbeater-96 (BioSpec). To determine CFUs, dilutions of homogenized samples were plated on LB plates with 50 μg/ml kanamycin. Analysis of bacterial loads in intestinal content and systemic organs. All mice were euthanized by asphyxiation with CO2 at indicated time points. Intestinal tissues (small intestine, cecum, colon) were removed aseptically. To collect intestinal content, organs were flushed with PBS. Organs were opened longitudinally, cleaned thoroughly with PBS and weighted. Organs and content were homogenized in PBS using a Polytron homogenizer ([…]). Dilutions of homogenized samples were plated on LB plates containing 50 μg/ml kanamycin to determine CFUs. For S. Typhimurium infection experiments, age- and sex-matched mice between 10 and 14 weeks of age were used. Both-female and male mice were used in experiments. Water and food were withdrawn for 4 hours before mice were treated with 20 mg/mouse of streptomycin by oral gavage. Afterwards, mice were supplied with water and food ad libitum. 20 hours after streptomycin treatment, water and food were withdrawn again, 4 hours before the mice were orally infected with 10^5 CFU of S. Typhimurium in 200 μl PBS. […]

In data set [3] the test system is C. rodentium strain ICC180. Briefly: Established gastrointestinal infection caused by C. rodentium. The class given is in vivo, mice. Particulars: two doses of 250 μg orally 5 days post infection; content or tissue not specified. As to the method:
All mice were euthanized by asphyxiation with CO2 at indicated time points. Intestinal tissues (small intestine, cecum, colon) were removed aseptically. To collect intestinal content, organs were flushed with PBS. Organs were opened longitudinally, cleaned thoroughly with PBS and weighted. Organs and content were homogenized in PBS using a Polytron homogenizer (Kinemtatica). Dilutions of homogenized samples were plated on LB plates containing 50 μg/ml kanamycin to determine CFUs.
Methods: Citrobacter rodentium infection. Bioluminescence expressing C. rodentium strain ICC180 was used for all infection experiments (Wiles et al., 2004). C. rodentium inoculae were prepared by culturing bacteria overnight at 37° C. in LB broth with 50 μg/mI kanamycin. Subsequently, the culture was diluted 1:100 in fresh medium, and sub-cultured for 4 hours at 37° C. in LB broth (Thiemann et al., 2017). Bacteria were washed twice in phosphate-buffered saline (PBS). Mice were orally inoculated with 10^8 CFU of C. rodentium diluted in 200 μl PBS. Weight of the mice was monitored and feces was collected for measurements of the pathogen burden. 5 days post infection mice received twice 250 μg peptide solved in 100 μl PBS or only PBS orally. The following day, mice were sacrificed to assess bacterial burden in the lumen and tissues of the cecum and the colon. […]

For the substance Pam2-Glc-Suc-RGKAKCCK [Pam-1], in data set [1], the bactericidal activity entry was “no or low bactericidal activity”. For the same substance, the “cell envelope damage (ypuA reporter)” value with ypuA promoter is given as “little cell envelope damage”. Moreover, the “metabolic activity (WST-1 assay)” value in data set [2] is “normal metabolic activity”. The “red blood cell disruption (hemolysis)” value with red blood cell is “minimal red blood cell disruption”. The “CFU of S. Typhimurium in cecum content” value in the data set with S. Typhimurium (250 μg orally 6 and 22 hours post infection, vs PBS, Mann-Whitney test) is listed as “significantly reduced”. The “CFU's in gut content and gut tissue, acute model (summary)” value with S. Typhimurium (mouse, in vivo) is “significant CFU reduction in the acute model and this only for gut content”. For the same substance, in data set [3], the “CFU's of C. rodentium in cecum” value is given as “did not reduce” and the “CFU's of C. rodentium in colon” value is recorded as “did not reduce”.

(Values after patent US20230365639A1, “DEFENSIN FRAGMENT DERIVED LIPOPEPTIDES FOR TREATMENT OF DRUG-RESISTANT MICROORGANISMS” (priority 2020, published 2023).)
